This is an account of results in patent publication US9456589B2, “Elasmobranch-repelling compounds and methods of use” (priority 2005, dated 2016).

Several values for one entry are separate records, joined by “and”; a condition that tells them apart may be missing. Identical values can stand only once. Entries after “also recorded” stand apart in the source; their conditions may differ.

Assay [1] deals with nurse sharks. As to the kind of experiment: Tonic immobility, Bite Assay. In kind it is in vivo, C. cirratum. The protocol: One bioassay used to observe and measure flight response is the tonic immobility test. Tonic immobility is a state of paralysis that typically occurs when a shark is subject to inversion of its body along the longitudinal axis. This state is called “tonic,” and the shark can remain in this state for up to 15 minutes thereby allowing researchers to observe effects of chemical repellents. The “tonic” state of the shark is first established by releasing seawater in proximity to the “tonic” shark with the same delivery instrument and at the same distance as a “test” repellent compound will be released. Some controls are released with a high flow rate (30 mL/sec) in order to establish that sharks are not awakened by a jet of fluid over their noses. Once behavioral controls are established, a compound or composition that may have a repelling effect is delivered to the shark. […] Using this tonic immobility bioassay researches can quantify the strength of a repellent effect. […]
In Bite Assays, a dose of typically less than 5 mL of 3-methylbutanal was presented directly into the shark's mouth using a pipette. […] Because the delivery was directly into the shark's mouth and responses were generally observed immediately upon delivery, time to response was not recorded.

In assay [2] the test system is sharks (lemon, nurse, blacknose, blacktip pooled). As to the kind of experiment: Tonic immobility, Syringe Assay, summary over species. The format is in vivo. The method, then:
(§1) One bioassay used to observe and measure flight response is the tonic immobility test. Tonic immobility is a state of paralysis that typically occurs when a shark is subject to inversion of its body along the longitudinal axis. This state is called “tonic,” and the shark can remain in this state for up to 15 minutes thereby allowing researchers to observe effects of chemical repellents. The “tonic” state of the shark is first established by releasing seawater in proximity to the “tonic” shark with the same delivery instrument and at the same distance as a “test” repellent compound will be released. Some controls are released with a high flow rate (30 mL/sec) in order to establish that sharks are not awakened by a jet of fluid over their noses. Once behavioral controls are established, a compound or composition that may have a repelling effect is delivered to the shark. If the compound or composition engenders a flight response, the shark will awaken from the tonic state and rapidly attempt to flee the delivered repellent. Using this tonic immobility bioassay researches can quantify the strength of a repellent effect.
A second delivery method called the “Syringe Assay” method delivered a dose of 60 mL or more of a test chemical repellent from at least one foot, and up to as many as five feet, from a shark. The distance of delivery was determined based on the strength of the water current in the direction of the shark. Time from delivery of the test substance until response was observed, measured and recorded. The “Syringe” method allows a researcher to observe how a diffusing and diluting cloud of test chemical repellent affects the shark's behavior when the shark encounters the delivered cloud of test substance. The “Syringe” method requires relatively large doses because of the diffusion of the cloud over time and distance. Time from delivery to response is related to the size of the bolus delivered from the syringe, distance of the shark from the syringe and water current.
In the Syringe assay about 60 mL or more of valeraldehyde was delivered from one to as many as five feet from the shark depending on the water current. […] Time from delivery to response was related to the size of the bolus delivered from the syringe, distance of the shark from the syringe and water current.

The test system of assay [3] is Caribbean reef and blacknose sharks. The assay can be described thus: Cloud Dispersion Assay on competitively feeding sharks. In kind it is in vivo, C. perezii, C. acronotus. The settings on record: 290 microliters. The text has this: Another bioassay used to observe a flight response in sharks is a cloud dispersion assay on competitively feeding population of sharks. This assay is referred to as a “Cloud Dispersion Assay” or “Cloud Assay.” A pressurized fluid delivery system was designed to deliver repellent into large feeding populations of sharks. The repellent is released as a subsurface cloud, which follows the current. A 1 L plastic container containing the test chemical repellent solution is pressurized to approximately 20 psig with a battery compressor or hand pump. A globe valve is used to hold back the fluid. The fluid is delivered to the end of a long PVC pole using a Teflon tubing. This allows the operator to place the tip of the pole well into a population of feeding sharks. By actuating the small globe valve, a cloud of the chemical solution is released quickly and reliably into the feeding population. Controls are established using FD&C Red 40 dye and seawater, uncolored seawater, and air. These controls establish that sharks are not afraid to approach the delivery pole, nor are sharks deterred from feeding by the jet of control fluid or air.
In each assay disclosed herein, a control of sea water was performed prior to the testing of each test repellent. In the control, sea water was delivered to the shark to be tested in the same delivery manner as the test repellent was delivered. […]

Assay [4] relates to lemon sharks. As to the kind of experiment: Tonic immobility, Hd Syringe Assay. In kind it is in vivo, N. brevirostris. Conditions: lemon; Hd syringe. The method, then:
as §1
(§2) Lemon, nurse, blacktip and tiger sharks were placed in tonic immobility by inverting the shark's body along its longitudinal axis. […] The “tonic” state of each shark was first established by releasing a control of seawater in proximity to the shark with the same delivery instrument and at the same distance as the chemical repellent would later be delivered. In certain controls, sea water was released with a high flow rate (30 mL/sec) in order to establish that the sharks would not be awakened by a jet of fluid over their noses.
Once behavioral controls were established, the chemical repellent was delivered to the shark using the Hd Syringe Assay method, the Syringe 3/5/10 Assay method, the Bite Assay method or the Micropipette Assay method. […]

Assay [5] concerns nurse sharks. The assay can be described thus: Tonic immobility, Hd Syringe Assay. In kind it is in vivo, C. cirratum. The settings on record: nurse; Hd syringe. The method, then:
as §1
Lemon, nurse, blacktip and tiger sharks were placed in tonic immobility by inverting the shark's body along its longitudinal axis. […]

Assay [6] relates to nurse sharks. The assay can be described thus: Tonic immobility, Syringe 3/5/10 Assay. The format is in vivo, C. cirratum. Conditions: juvenile nurse sharks.
The test system of assay [7] is blacktip sharks. As to the kind of experiment: Tonic immobility, Syringe 3/5/10 Assay. In kind it is in vivo, C. limbatus. The protocol:
as §1
In the tonic immobility studies disclosed herein, several different methods were employed for delivery of repelling compounds. A first method for delivery of chemical repellent in tonic immobility studies employed a “Syringe 3/5/10 Assay” method. The “Syringe 3/5/10 Assay” method is so named because a test repellent is delivered to a shark from a distance of about “3” inches with a bolus of about “5” mL with a response to the test repellent considered positive if the shark reacts with a change in behavior within less than about “10” seconds from the time of delivery.
The “3/5/10 Syringe Assay” as employed herein delivered a dose of 5-6 mL of a test chemical repellent from a syringe fixed with a needle having a gauge of about 22 from a distance at least 3 inches in front of a shark. Because the test chemical repellent was delivered at a distance from the shark's nares and mouth, a cloud of test chemical repellent was dispersed over the shark within the water column. The dispersed test repellent was subject to water current direction, dispersion and dilution. As a result, a flight response within 10 seconds was considered a positive repellency response. […] Time from delivery to response is related to the size of the bolus delivered from the syringe, distance of the shark from the syringe and water current.
as §2
(§3) Once behavioral controls were established, the chemical repellent was delivered to the shark using the Hd Syringe Assay method, the Syringe 3/5/10 Assay method, the Bite Assay method or the Micropipette Assay method. […] If tonic immobility was terminated, the positive response was denoted as “Y.” If tonic immobility was not terminated but a behavior change within tonic immobility was noted, such as the opening of the mouth or a cough, the response was denoted as an “R” for reduced response. If no behavior change was observed, the negative response was denoted “N.”
In Syringe 3/5/10 Assays, 5-6 mL of 3-methylbutanal was delivered at least 3 inches in front of the shark's mouth. A cloud of the repellent dispersed over the shark within the water column. […] As noted above, because the dispersion of the chemical repellent upon delivery is affected by volume of repellent, water current, and other factors, the time between delivery and response was not correlatable with the potency of the repellent. […]

Assay [8] deals with nurse sharks. As to the kind of experiment: Tonic immobility, Micropipette Assay. The format is in vivo, C. cirratum. The settings on record: nurse; micropipette; 270 ul. The method, then: as §1
(§4) A fourth method of delivery was called the “Micropipette Assay” method of delivery. In this method, a very small dose (fraction of a mL) of a test substance was delivered directly into a shark's mouth. […] A response, such as a cough or other notable action of the shark, was usually noted when effective gustatory repellents were delivered directly into a shark's mouth while in tonic immobility.
The Micropipette Assay method has not proven to be a particularly effective method of assaying for a flight response in elasmobranchs. The Micropipette Assay method is, nevertheless, an excellent method for specifying that a gustatory response has occurred. It is effective for specifying a gustatory response because the micropipette delivery method allows direct delivery of an entire bolus of test substance into the mouth of the shark being tested. […]

Assay [9] relates to tiger sharks. As to the kind of experiment: Tonic immobility, Syringe 3/5/10 Assay. The format is in vivo, G. cuvieri. The settings on record: tiger shark. The protocol: as §1
In the tonic immobility studies disclosed herein, several different methods were employed for delivery of repelling compounds. A first method for delivery of chemical repellent in tonic immobility studies employed a “Syringe 3/5/10 Assay” method. […]

The test system of assay [10] is lemon sharks. The assay can be described thus: Tonic immobility, Micropipette Assay. The format is in vivo, N. brevirostris. The settings on record: lemon / juvenile sharks; micropipette. The protocol: as §1, §4
The Micropipette Assay method has not proven to be a particularly effective method of assaying for a flight response in elasmobranchs. The Micropipette Assay method is, nevertheless, an excellent method for specifying that a gustatory response has occurred. It is effective for specifying a gustatory response because the micropipette delivery method allows direct delivery of an entire bolus of test substance into the mouth of the shark being tested.
Using a microliter syringe or microliter pipette, a bolus of test chemical can be directed precisely into one of the shark's nares, or its mouth. […] Olfactory repellents will terminate tonic immobility almost immediately when injected into a nare of the shark.
as §2, §3
Further because the Micropipette assays were often done serially on the same set of sharks, second and third doses of the repellent over time would be expected to evoke less of a reaction. Nevertheless, the small doses delivered to the shark in the Micropipette assay provide important data on whether a compound is a gustatory stimulant because the small dose may be delivered directly into the mouth of the shark. This eliminates any olfactory response that might be acting in concert with a gustatory response to terminate tonic immobility.

The subject of assay [11] is lemon sharks. The settings on record: Table 24; lemon shark; swab delivery.

On to `CC(=O)C(C)=O` [2,3-butanedione], for which the “Bite Y (termination of tonic immobility), trials of trials” value in assay [1] is “terminated and 1/1”. In assay [2], the “Syringe N (no response), trials of trials” value is 1/8; the “Syringe R (behavior response within tonic immobility), trials of trials” value was “behavioral response”; the “Syringe Y (termination of tonic immobility), trials of trials” value was “seven of eight and 7/8”. Besides, the “Cloud/Cage N (no response)” value in assay [3] is “no response and 1/1”.
Take `CCC(C=O)CC` [diethylacetaldehyde]: the “Comments (behavior observed)” value in assay [4] is “cough”; in [5], “cough”; in [7] (blacktip, syringe 3/5/10), “cough/tensed”; in [10] it was “blinked; also recorded: cough”. Besides, the results for the “Syringe 3/5/10 assays terminating tonic immobility” value in [6] and in assay [7] (blacktip sharks) were “six of six” and “two of four”, respectively. Besides, the “Syringe 3/5/10 assays with behavioral response” value in [7] (blacktip sharks) is “behavioral response”. Moreover, the “Syringe 3/5/10 assays with no response” value in [7] (blacktip sharks) is on record as “no response”. Moreover, the “Response (time from delivery to response)” value in [8] stood at 1 s. For the same compound, the “Syringe 3/5/10 assay outcome” value in assay [9] is recorded as “terminated”.
For `O=C(O)CCC(=O)O` [succinic acid], the “T? (termination of tonic immobility)” value in [11] is recorded as “N”.
